Laboratory results taken from ChEMBL document CHEMBL1130332, “Synthesis of (+)- and ()-2-methylarachidonyl-2-fluoroethylamide (O-689)” (Bioorg Med Chem Lett, 1997).
pKi: −log10 of the molar value. “And” between values parts separate entries of the source, which are not always exact repeats. Identical values can stand only once.

What was measured:
Cannabinoid receptor 1 [1] = biological target: T1, Cannabinoid receptor 1 (Rattus norvegicus, UniProt P20272); assay: Compound was evaluated for binding affinity to displace [3H]CP-55940 radioligand from cannabinoid receptor in rat brain P2 membrane; assay type: cell membranes
T1 sequence (P20272 whole entry): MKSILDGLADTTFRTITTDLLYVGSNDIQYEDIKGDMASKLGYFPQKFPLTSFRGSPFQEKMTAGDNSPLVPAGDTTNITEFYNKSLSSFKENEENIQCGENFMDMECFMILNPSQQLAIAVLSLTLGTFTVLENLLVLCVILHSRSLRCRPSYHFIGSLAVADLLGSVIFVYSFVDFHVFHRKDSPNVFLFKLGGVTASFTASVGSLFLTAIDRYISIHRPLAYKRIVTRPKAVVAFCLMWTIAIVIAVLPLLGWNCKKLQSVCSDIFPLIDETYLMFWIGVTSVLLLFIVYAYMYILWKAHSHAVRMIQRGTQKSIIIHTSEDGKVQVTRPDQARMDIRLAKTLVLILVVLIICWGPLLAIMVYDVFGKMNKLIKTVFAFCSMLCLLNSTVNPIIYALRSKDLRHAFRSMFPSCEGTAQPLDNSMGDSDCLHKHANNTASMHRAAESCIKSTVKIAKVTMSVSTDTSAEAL

Mus musculus [2] = assay: Tested for ring immobility in mouse upon intravenous administration; assay type: functional
Mus musculus [3] = assay: Tested for in vivo inhibition of locomotor activity in mouse upon intravenous administration; assay type: functional
Cannabinoid receptor 1 [4] = biological target: T1, Cannabinoid receptor 1; assay: Compound was evaluated for binding affinity towards cannabinoid receptor in rat brain P2 membrane; assay type: cell membranes
Mus musculus [5] = assay: Tested for hypothermia in mouse upon intravenous administration; assay type: functional
Mus musculus [6] = assay: Tested for in vivo […] by tail-flick method in mouse upon intravenous administration; assay type: functional

Compound	pKi (Cannabinoid receptor 1 [1])	ED50 (Mus musculus [2]) [mg/kg]	ED50 (Mus musculus [3])	pKi (Cannabinoid receptor 1 [4])	ED50 (Mus musculus [5]) [mg/kg]	ED50 (Mus musculus [6]) [mg/kg]
CCCCC/C=C\C/C=C\C/C=C\C/C=C\CCC(C)C(=O)NCCF (racemic)	7.67	1.6	1.85 mg/kg and 4.78 mg/kg	8.24	2.73	
CCCCC/C=C\C/C=C\C/C=C\C/C=C\CCC(C)C(=O)NCCF (single isomer, unassigned; (-))	7.82	2.93	2.3 mg/kg		10.1	1.34
CCCCC/C=C\C/C=C\C/C=C\C/C=C\CCC(C)C(=O)NCCF (stereo in doubt; (+)-4a)	7.65	5.27	10.2 mg/kg		2.49	2.56
